{
  "source": "paper PMC11157767",
  "about": "(Molecular Cancer, 2024)",
  "tested_on": "TRIM24-MET-i cells",
  "method": "The number of unique and shared differentially expressed genes between each comparison are shown in parentheses. A linear regression line is depicted along with Pearson’s correlation coefficient (r) and its associated p-value. […] Common negatively enriched genesets between all three comparisons are in bold. c, Heatmaps showing expression of Hallmark_Myc_Target_v1/2 genes for indicated cells and treatment comparisons (TRIM-MET cells were treated in vitro, TFG-MET cells in vivo). Select leading edge genes from GSEA are labeled.",
  "data": [
    {"smiles": "CNC(=O)c1ccc(-c2cnc3ncc(Cc4ccc5ncccc5c4)n3n2)cc1F", "note": "[Capmatinib]", "values": [
      {"measurement": "NES HALLMARK_ADIPOGENESIS", "setting": "GSEA v. DMSO", "value": -0.9589},
      {"measurement": "NES HALLMARK_ALLOGRAFT_REJECTION", "setting": "GSEA v. DMSO", "value": -1.401},
      {"measurement": "NES HALLMARK_ANDROGEN_RESPONSE", "setting": "GSEA v. DMSO", "value": -1.889},
      {"measurement": "NES HALLMARK_APICAL_JUNCTION", "setting": "GSEA v. DMSO", "value": -1.091},
      {"measurement": "NES HALLMARK_APICAL_SURFACE", "setting": "GSEA v. DMSO", "value": 1.792},
      {"measurement": "NES HALLMARK_APOPTOSIS", "setting": "GSEA v. DMSO", "value": -1.59},
      {"measurement": "NES HALLMARK_BILE_ACID_METABOLISM", "setting": "GSEA v. DMSO", "value": 1.602},
      {"measurement": "NES HALLMARK_CHOLESTEROL_HOMEOSTASIS", "setting": "GSEA v. DMSO", "value": -1.359},
      {"measurement": "NES HALLMARK_COAGULATION", "setting": "GSEA v. DMSO", "value": -1.635},
      {"measurement": "NES HALLMARK_COMPLEMENT", "setting": "GSEA v. DMSO", "value": -1.904},
      {"measurement": "NES HALLMARK_DNA_REPAIR", "setting": "GSEA v. DMSO", "value": -0.965},
      {"measurement": "NES HALLMARK_E2F_TARGETS", "setting": "GSEA v. DMSO", "value": -1.195},
      {"measurement": "NES HALLMARK_EPITHELIAL_MESENCHYMAL_TRANSITION", "setting": "GSEA v. DMSO", "value": -1.076},
      {"measurement": "NES HALLMARK_ESTROGEN_RESPONSE_EARLY", "setting": "GSEA v. DMSO", "value": -1.483},
      {"measurement": "NES HALLMARK_ESTROGEN_RESPONSE_LATE", "setting": "GSEA v. DMSO", "value": -1.018},
      {"measurement": "NES HALLMARK_FATTY_ACID_METABOLISM", "setting": "GSEA v. DMSO", "value": 0.99},
      {"measurement": "NES HALLMARK_G2M_CHECKPOINT", "setting": "GSEA v. DMSO", "value": -1.318},
      {"measurement": "NES HALLMARK_GLYCOLYSIS", "setting": "GSEA v. DMSO", "value": -1.3547},
      {"measurement": "NES HALLMARK_HEDGEHOG_SIGNALING", "setting": "GSEA v. DMSO", "value": -1.3433},
      {"measurement": "NES HALLMARK_HEME_METABOLISM", "setting": "GSEA v. DMSO", "value": 1.243},
      {"measurement": "NES HALLMARK_HYPOXIA", "setting": "GSEA v. DMSO", "value": -1.387},
      {"measurement": "NES HALLMARK_IL2_STAT5_SIGNALING", "setting": "GSEA v. DMSO", "value": -2.015},
      {"measurement": "NES HALLMARK_IL6_JAK_STAT3_SIGNALING", "setting": "GSEA v. DMSO", "value": -0.9282},
      {"measurement": "NES HALLMARK_INFLAMMATORY_RESPONSE", "setting": "GSEA v. DMSO", "value": -1.659},
      {"measurement": "NES HALLMARK_INTERFERON_ALPHA_RESPONSE", "setting": "GSEA v. DMSO", "value": 1.273},
      {"measurement": "NES HALLMARK_INTERFERON_GAMMA_RESPONSE", "setting": "GSEA v. DMSO", "value": -0.9862},
      {"measurement": "NES HALLMARK_KRAS_SIGNALING_DN", "setting": "GSEA v. DMSO", "value": 1.126},
      {"measurement": "NES HALLMARK_KRAS_SIGNALING_UP", "setting": "GSEA v. DMSO", "value": -1.881},
      {"measurement": "NES HALLMARK_MITOTIC_SPINDLE", "setting": "GSEA v. DMSO", "value": -1.303},
      {"measurement": "NES HALLMARK_MTORC1_SIGNALING", "setting": "GSEA v. DMSO", "value": -2.1602},
      {"measurement": "NES HALLMARK_MYC_TARGETS_V1", "setting": "GSEA v. DMSO", "value": -2.499},
      {"measurement": "NES HALLMARK_MYC_TARGETS_V2", "setting": "GSEA v. DMSO", "value": -2.697},
      {"measurement": "NES HALLMARK_MYOGENESIS", "setting": "GSEA v. DMSO", "value": -0.8301},
      {"measurement": "NES HALLMARK_NOTCH_SIGNALING", "setting": "GSEA v. DMSO", "value": -1.186},
      {"measurement": "NES HALLMARK_OXIDATIVE_PHOSPHORYLATION", "setting": "GSEA v. DMSO", "value": -1.201},
      {"measurement": "NES HALLMARK_P53_PATHWAY", "setting": "GSEA v. DMSO", "value": -0.9833},
      {"measurement": "NES HALLMARK_PANCREAS_BETA_CELLS", "setting": "GSEA v. DMSO", "value": 1.071},
      {"measurement": "NES HALLMARK_PEROXISOME", "setting": "GSEA v. DMSO", "value": 1.028},
      {"measurement": "NES HALLMARK_PI3K_AKT_MTOR_SIGNALING", "setting": "GSEA v. DMSO", "value": -1.164},
      {"measurement": "NES HALLMARK_PROTEIN_SECRETION", "setting": "GSEA v. DMSO", "value": -1.171},
      {"measurement": "NES HALLMARK_REACTIVE_OXYGEN_SPECIES_PATHWAY", "setting": "GSEA v. DMSO", "value": -1.072},
      {"measurement": "NES HALLMARK_SPERMATOGENESIS", "setting": "GSEA v. DMSO", "value": 0.7417},
      {"measurement": "NES HALLMARK_TGF_BETA_SIGNALING", "setting": "GSEA v. DMSO", "value": -1.868},
      {"measurement": "NES HALLMARK_TNFA_SIGNALING_VIA_NFKB", "setting": "GSEA v. DMSO", "value": -2.324},
      {"measurement": "NES HALLMARK_UV_RESPONSE_DN", "setting": "GSEA v. DMSO", "value": -1.271},
      {"measurement": "NES HALLMARK_UV_RESPONSE_UP", "setting": "GSEA v. DMSO", "value": -1.537},
      {"measurement": "NES HALLMARK_WNT_BETA_CATENIN_SIGNALING", "setting": "GSEA v. DMSO", "value": -1.2104},
      {"measurement": "NES HALLMARK_XENOBIOTIC_METABOLISM", "setting": "GSEA v. DMSO", "value": 0.8191},
      {"measurement": "NES KRIGE_RESPONSE_TO_TOSEDOSTAT_6HR_DN", "setting": "GSEA v. DMSO", "value": -2.5861},
      {"measurement": "NES KRIGE_RESPONSE_TO_TOSEDOSTAT_24HR_DN", "setting": "GSEA v. DMSO", "value": -2.743},
      {"measurement": "NES LEE_BMP2_TARGETS_DN", "setting": "GSEA v. DMSO", "value": -2.881},
      {"measurement": "NES PUJANA_CHEK2_PCC_NETWORK", "setting": "GSEA v. DMSO", "value": -2.452},
      {"measurement": "NES WEI_MYCN_TARGETS_WITH_E_BOX", "setting": "GSEA v. DMSO", "value": -2.939},
      {"measurement": "ES GOBP_NCRNA_METABOLIC_PROCESS", "setting": "GSEA, v. DMSO", "value": -0.717},
      {"measurement": "ES GOBP_NCRNA_PROCESSING", "setting": "GSEA, v. DMSO", "value": -0.737},
      {"measurement": "ES GOBP_RIBONUCLEOPROTEIN_COMPLEX_BIOGENESIS", "setting": "GSEA, v. DMSO", "value": -0.7048},
      {"measurement": "ES GOBP_RIBOSOME_BIOGENESIS", "setting": "GSEA, v. DMSO", "value": -0.7793},
      {"measurement": "ES GOBP_RRNA_METABOLIC_PROCESS", "setting": "GSEA, v. DMSO", "value": -0.7679},
      {"measurement": "ES GOCC_MITOCHONDRIAL_ENVELOPE", "setting": "GSEA, v. DMSO", "value": -0.4986},
      {"measurement": "ES GOCC_NUCLEOLUS", "setting": "GSEA, v. DMSO", "value": -0.546},
      {"measurement": "ES GOCC_ORGANELLE_INNER_MEMBRANE", "setting": "GSEA, v. DMSO", "value": -0.5385},
      {"measurement": "ES GOCC_PRERIBOSOME", "setting": "GSEA, v. DMSO", "value": -0.8527},
      {"measurement": "ES GOCC_RIBONUCLEOPROTEIN_COMPLEX", "setting": "GSEA, v. DMSO", "value": -0.5996},
      {"measurement": "ES GOMF_CATALYTIC_ACTIVITY_ACTING_ON_A_TRNA", "setting": "GSEA, v. DMSO", "value": -0.6843},
      {"measurement": "ES GOMF_CATALYTIC_ACTIVITY_ACTING_ON_RNA", "setting": "GSEA, v. DMSO", "value": -0.6193},
      {"measurement": "ES GOMF_RNA_HELICASE_ACTIVITY", "setting": "GSEA, v. DMSO", "value": -0.6953},
      {"measurement": "ES GOMF_RRNA_BINDING", "setting": "GSEA, v. DMSO", "value": -0.7411},
      {"measurement": "ES GOMF_STRUCTURAL_CONSTITUENT_OF_RIBOSOME", "setting": "GSEA, v. DMSO", "value": -0.6124},
      {"measurement": "NES GOBP_NCRNA_METABOLIC_PROCESS", "setting": "GSEA, v. DMSO", "value": -2.6866},
      {"measurement": "NES GOBP_NCRNA_PROCESSING", "setting": "GSEA, v. DMSO", "value": -2.741},
      {"measurement": "NES GOBP_RIBONUCLEOPROTEIN_COMPLEX_BIOGENESIS", "setting": "GSEA, v. DMSO", "value": -2.64},
      {"measurement": "NES GOBP_RIBOSOME_BIOGENESIS", "setting": "GSEA, v. DMSO", "value": -2.85},
      {"measurement": "NES GOBP_RRNA_METABOLIC_PROCESS", "setting": "GSEA, v. DMSO", "value": -2.741},
      {"measurement": "NES GOCC_MITOCHONDRIAL_ENVELOPE", "setting": "GSEA, v. DMSO", "value": -1.908},
      {"measurement": "NES GOCC_NUCLEOLUS", "setting": "GSEA, v. DMSO", "value": -2.1002},
      {"measurement": "NES GOCC_ORGANELLE_INNER_MEMBRANE", "setting": "GSEA, v. DMSO", "value": -2.039},
      {"measurement": "NES GOCC_PRERIBOSOME", "setting": "GSEA, v. DMSO", "value": -2.662},
      {"measurement": "NES GOCC_RIBONUCLEOPROTEIN_COMPLEX", "setting": "GSEA, v. DMSO", "value": -2.294},
      {"measurement": "NES GOMF_CATALYTIC_ACTIVITY_ACTING_ON_A_TRNA", "setting": "GSEA, v. DMSO", "value": -2.236},
      {"measurement": "NES GOMF_CATALYTIC_ACTIVITY_ACTING_ON_RNA", "setting": "GSEA, v. DMSO", "value": -2.299},
      {"measurement": "NES GOMF_RNA_HELICASE_ACTIVITY", "setting": "GSEA, v. DMSO", "value": -2.194},
      {"measurement": "NES GOMF_RRNA_BINDING", "setting": "GSEA, v. DMSO", "value": -2.258},
      {"measurement": "NES GOMF_STRUCTURAL_CONSTITUENT_OF_RIBOSOME", "setting": "GSEA, v. DMSO", "value": -2.138}
    ]}
  ]
}
